Reference: patent US7541331B2, “Surfactant treatment regimen” (Discovery Laboratories, Inc., priority 2005, dated 2009)

Tested on: premature neonates
Assay: Pilot phase 2 open study of lucinactant delivered as an aerosol via nCPAP for prevention of RDS
Details: in vivo
Protocol: This example provides a protocol for administration of lucinactant as an aerosol via nCPA to premature infants. This protocol has been used in a pilot phase 2, open study to evaluate the feasibility, safety, and tolerability of lucinactant delivered as an aerosol via nCPAP for the prevention of RDS in premature neonates.
Lucinactant was administered using an approved vibrating machine device (Aeroneb-Pro® or equivalent) and delivered via nCPAP within 30 minutes of birth. In a first treatment group, 20 mg/ml of lucinactant was administered within the first 30 minutes of life continually over three hours. Up to three retreatments were permitted over a 48 hour period, with each treatment separated by at least 3 hours (from end of previous treatment). In a second treatment group, 20 mg/ml of lucinactant was administered within the first 30 minutes of life continually over three hours. Up to three retreatments were permitted over a 48 hour period, with each treatment separated by at least one hours (from end of previous treatment).
Qualified premature neonates were sequentially enrolled and stratified by gestational age (stratum 1:30-32 completed weeks followed by stratum 2:28-29 completed weeks) into the first treatment regimen group (3 hours on aerosol treatment/3 hours off aerosol treatment) and received aerosolized lucinactant via nCPAP. Safety and tolerability data were evaluated after enrollment of every five neonates. Once enrollment in the first treatment group was completed, neonates were sequentially enrolled and stratified into the second treatment group (3 hours on aerosol treatment/1 hours off aerosol treatment). All neonates enrolled were evaluated through 28 days of age.

lucinactant
adverse effects considered related to both study drug and the device: 35.3%
adverse effects considered related to study drug: 47.1%
adverse effects considered related to the device: 11.8%
incidence of apnea: 94.1%
incidence of hypocalcemia: 29.4%
incidence of oxygen saturation decreased: 70.6%
incidence of patent ductus arteriosus: 35.3%
safety and tolerability of treatment: generally safe and well tolerated
serious adverse effects considered related to the device: Two
total adverse effects reported: 83
total serious adverse effects reported: 5
